# Key:
# [1] = target: T1, kappa opioid receptor (KOR) (Homo sapiens, UniProt P41145); experiment: OPRKappa 1 Tango B-Arrestin Assay, antagonist mode (Tango OPRK1-bla U2OS cells, U50488 EC80 challenge); format: cell-based; conditions: for Selectivity (MOR/KOR): Kappa selectivity, MOR IC50 / KOR IC50; for IC50: antagonist mode, Tango OPRK1-bla U2OS cells, 6 nM U50488 challenge
# T1 construct: host or cells: U2OS (Tango OPRK1-bla U2OS)
# Excerpt: OPRKappa 1 Tango B-Arrestin Assay Protocol-Antagonist Mode. […] The assay uses Tango OPRK1-bla U2OS cells which express OPRK1 linked to a GAL4-VP16 transcription factor via a TEV protease site. The cells also express a β-arrestin/TEV protease fusion protein and a β-lactamase (BLA) reporter gene under the control of a UAS response element. Stimulation of the OPRK1 receptor by agonist causes migration of the β-arrestin fusion protein to the GPCR, and through proteolysis liberates GAL4-VP16 from the receptor. The liberated VP16-GAL4 migrates to the nucleus, where it induces transcription of the BLA gene. BLA expression is monitored by measuring fluorescence resonance energy transfer (FRET) of a cleavable, fluorogenic, cell-permeable BLA substrate. As designed, test compounds that are OPRK1 antagonists inhibit agonist activation and migration of the fusion protein, thus preventing proteolysis of GAL4-VP16 and BLA transcription, leading to no increase in well FRET. Compounds were tested in quadruplicate using a 10-point, 1:3 dilution series starting at a nominal concentration of 10 micromolar.
# The Tango OPRK1-U20S Dividing cell line was routinely cultured in 150 mm dishes at 37C, 5% CO2 and 95% relative humidity (RH).
# On Day 1 of the assay, 16,000 cells in 10 μL of assay media (DMEM-Glutamax—with Sodium Pyruvate, 10% fetal bovine serum stripped with charcoal-dextran (CDS), 25 mM HEPES, 0.1 mM non-essential amino acids, antibiotic mix (penicillin streptomycin)) were seeded into each well of a 384 Greiner 788092 black low profile, clear bottom, low volume plate, and incubated 16-24 hours at 37° C., 5% CO2 and 95% (RH).
# On Day 2, 50 nL of test compound in DMSO was added to the appropriate wells and plates were incubated for 30 min at 37° C. 5% CO2 and 95% (RH). Next was added 0.65 μL of commercially available U50488 OPRK1 agonist or DMSO in assay media: this EC80 Challenge consists of 0.6 μL of 111 nM U50488 to yield a final assay concentration of 6 nM). After incubation for 4 hours at 37° C., 5% CO2 and 95% (RH), 2.5 μL of LiveBLazer™FRET B/G (CCF4-AM) Mix (Soln.'s A,B,C,&D) was added to each well and incubated at room temperature in the dark for 2 hours. Well fluorescence was measured on Perkin Elmer's Envision using an Excitation filter 409 nm, Emission filters at 460 nm and […], bottom read.
# (§1) The Percent Inhibition was calculated from the median ratio as follows:
# • Tango™OPRK1-bla U20S Cells (Invitrogen K1576) • McCoy's 5A Medium, (Invitrogen 16600-082) • Dialyzed Fetal Bovine Serum, (Invitrogen 26400-036) • Non Essential Amino Acids 100× (Invitrogen part 11140-050) • HEPES (pH 7.3) 1M, (Invitrogen 15630-080) • Sodium Pyruvate 100× (Invitrogen 11360-070) • Penicillin Streptomycin, (Invitrogen 15640) • Trypsin 0.25% EDTA (Invitrogen 25200056) • DPBS without Calcium/Magnesium (Invitrogen 14190-136) • DMEM, High Glucose, GlutaMAX (Invitrogen 10569-010) • Fetal Bovine Serum, Charcoal Stripped (Invitrogen 12676-011) • DMSO Dry (Sigma D2650) • U50488 OPRK1 Agonist MW410.29 (Tocris 67198-19-0) • GNTI dihydrochloride OPRK1 Antagonist MW571.5 (Tocris 1282) • Nor-Binaltorphimine dihydrochloridc MW770.75 (Tocris 0347)
# LiveBLAzere™-FRET/BG Loading Mix: (Invitrogen K1030 (5 mg)), composed of Solutions A, B, C, and D: • Solution A (6 μL): LiveBLAzer™-FRET/BG Substrate (CCF4-AM) • Solution B (60 μL) • Solution C (904 μL) • Solution C (must add 250 μl of 1N NaOH to 45 mL of Solution C prior to use) • Solution D (30 μL) [Probinicid] (Sigma P8161) make 200 mM stock in NaOH—H2O.
# mu opioid receptor (MOR) = target: T2, mu opioid receptor (MOR) (Homo sapiens, UniProt P35372); experiment: OPRMu1 Discover X β-arrestin Assay, antagonist mode (U2OS cells, DAMGO EC80 challenge); format: cell-based
# T2 construct: host or cells: U2OS (Discover X OPRMu1-U2OS, PathHunter)
# Excerpt: OPRMu1 Discover X—β-arrestin Assay—Antagonist Mode. […] This assay evaluates the OPRMu1 activation in membrane recruitment of β-arrestin. In addition, the assay evaluates GPCR-β-arrestin proximity using low affinity fragment complementation of beta-galactosidase (beta-gal). The assay employs U20S cells, which express OPRMu1 fused to the complementary beta-gal fragment (enzyme acceptor). As designed, compounds that act as antagonists will prevent receptor activation resulting in reduced well luminescence. Compounds were tested in quadruplicate using a 10-point, 1:3 dilution series starting at a nominal concentration of 10 micromolar.
# The Discover X OPRMu1-U20S cell line was cultured in 150 mm dishes at 37° C., 5% CO2 and 95% relative humidity (RH).
# On Day 1 of the assay, 5000 cells in 20 μL of assay buffer (Discover X's Cell Plating Reagent 5) were seeded into each well of a 384 Corning 3570 standard white plate, and incubated 16-24 hours at 37° C., 5% CO2 and 95% RH.
# On Day 2, 100 nL of test compound in DMSO were added to the appropriate wells and the plates were then incubated for 30 min at 37° C. 5% CO2 and 95% RH. Next, 2.2 μL of DAMGO OPRMu1 agonist (commercially available) or DMSO in assay media. (The EC80 Challenge consists of 1.8 μL of 3.7 μM DAMGO, 0.4 μL of Assay Buffer, with a final assay concentration of 303 nM). After incubation for 3 hours at 37° C. 5% CO2, and 95% RH, 10 μL of Path Hunter Detection Mix was added to each well, and the plate was then incubated at room temperature in the dark for 1 hour. Well luminescence was measured on Perkin Elmer's Envision.
# as §1
# • DMEM Medium, (Invitrogen 11965) • F12 Medium, (Invitrogen 11765) • Heat Inactivated Fetal Bovine Serum, (Invitrogen 10082147) • Non Essential Amino Acids 100× (Invitrogen 11140-050) • HEPES (pH 7.3) 1M, (Invitrogen 15630-080) • Sodium Pyruvate 100× (Invitrogen 11360-070) • Penicillin Streptomycin, (Invitrogen 15640) • Trypsin 0.25% EDTA (Invitrogen 25200056) • DPBS without Calcium/Magnesium (Invitrogen 14190-136) • DMSO Dry (Sigma D2650) • DAMGO OPRMu1 Agonist MW513.19 (Sigma E7384-5MG) • B-Funaltrexamine Hydrochloride OPRM1 Antagonist MW (SIGMA 0003-2MG) • PathHunter Cell Plating 5 Reagent (Discover X 93-0563R5A) • Corning 3750 Standard 384 well white plate with lid.
# PathHunter Detection Mix (DiscoverX 93-0001): 1 part Galacton Star/5 parts Emerald II/19 parts PH Cell Assay Buffer.
# T2 sequence (P35372 whole entry): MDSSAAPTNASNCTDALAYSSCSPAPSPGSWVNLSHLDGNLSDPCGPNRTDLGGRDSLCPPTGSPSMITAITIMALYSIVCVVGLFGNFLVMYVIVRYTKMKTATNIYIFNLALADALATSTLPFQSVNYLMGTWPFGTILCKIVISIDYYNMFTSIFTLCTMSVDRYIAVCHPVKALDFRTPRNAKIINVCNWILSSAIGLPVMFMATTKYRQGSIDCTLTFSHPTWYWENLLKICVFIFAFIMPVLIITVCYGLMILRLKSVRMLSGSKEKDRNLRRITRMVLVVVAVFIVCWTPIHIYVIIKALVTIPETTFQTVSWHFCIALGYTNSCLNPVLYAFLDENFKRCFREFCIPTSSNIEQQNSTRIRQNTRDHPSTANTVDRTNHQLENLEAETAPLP
# T1 sequence (P41145 whole entry): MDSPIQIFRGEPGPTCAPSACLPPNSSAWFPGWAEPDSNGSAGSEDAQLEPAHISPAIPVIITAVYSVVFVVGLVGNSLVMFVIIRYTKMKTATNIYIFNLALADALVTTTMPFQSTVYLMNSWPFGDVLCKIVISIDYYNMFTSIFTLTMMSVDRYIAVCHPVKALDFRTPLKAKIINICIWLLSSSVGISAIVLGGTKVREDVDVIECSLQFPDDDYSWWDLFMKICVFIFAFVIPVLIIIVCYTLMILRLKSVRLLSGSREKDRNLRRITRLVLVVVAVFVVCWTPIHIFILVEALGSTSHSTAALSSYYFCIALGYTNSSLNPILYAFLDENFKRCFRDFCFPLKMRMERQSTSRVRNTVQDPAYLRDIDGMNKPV
SMILES,IC50 [1] [µM],IC50 (mu opioid receptor (MOR)) [µM],Selectivity (MOR/KOR) [1]
"CCc1cc(F)c2nc(N3CCC(N[C@@H]4CCOC[C@H]4O)CC3)c(-c3cc(C)n(C)n3)c(C)c2c1 [Compound 17, (3S,4R)-4-((1-(3-(1,5-dimethyl-1H-pyrazol-3-yl)-6-ethyl-8-fluoro-4-methylquinolin-2-yl)piperidin-4-yl)amino)tetrahydro-2H-pyran-3-ol]",0.001 to 0.01,0.1 to 1,++ (between 10- and 100-fold selectivity)
CCc1cc(C#N)c2nc(N3CCC(N[C@@H]4CCOC[C@@H]4F)CC3)c(-c3ccn(C)n3)c(C)c2c1 [Compound 78],< 0.001,0.01 to 0.1,++ (between 10- and 100-fold selectivity)
CCc1cc(F)c2nc(N3CC[C@@H](N[C@@H]4CCCOC4)[C@@H](C)C3)c(-c3ccn(C)n3)c(C)c2c1 [Compound 113],< 0.001,> 1,++++ (more than 1000-fold selectivity over MOR)
"CCc1cc(F)c2nc(N3CCN(CC4(F)CCOCC4)C[C@H]3C)c(-c3nc(C)no3)c(C)c2c1 [Compound 207, (R)-5-(6-ethyl-8-fluoro-2-(4-((4-fluorotetrahydro-2H-pyran-4-yl)methyl)-2-methylpiperazin-1-yl)-4-methylquinolin-3-yl)-3-methyl-1,2,4-oxadiazole]",0.001 to 0.01,> 1,++++ (more than 1000-fold selectivity over MOR)
CCc1cc(F)c2nc(N3CC[C@H](N[C@@H]4CCOC4)C[C@@H]3C)c(-c3ccn(C)n3)c(C)c2c1 [Compound 117],0.001 to 0.01,0.1 to 1,+++ (between 100- to 1000-fold selective)
CCc1cc(F)c2nc(N3CC[C@H]4[C@H](CCN4C[C@@H]4CCCOC4)C3)c(-c3ccn(C)n3)c(C)c2c1 [Compound 130],0.01 to 0.1,> 1,++ (between 10- and 100-fold selectivity)
CCc1cc(F)c2nc(N3CC[C@H](N[C@@H]4CCCOC4)C[C@@H]3C)c(-c3ccn(C)n3)c(C)c2c1 [Compound 121],0.01 to 0.1,> 1,+++ (between 100- to 1000-fold selective)
CCc1cc(F)c2nc(N3CCN(/C(=N/C#N)NC[C@H](Cc4ccc(O)cc4)N(C)C)C[C@H]3C)c(-c3nc(C)no3)c(C)c2c1 [Compound 48],0.01 to 0.1,0.1 to 1,+ (less than 10-fold selectivity)

# Now from value to compound, other results behind:
IC50 [1] [µM],IC50 (mu opioid receptor (MOR)) [µM],SMILES,Selectivity (MOR/KOR) [1]
0.001 to 0.01,> 1,CCc1cc(F)c2nc(N3CCN(C[C@H]4CCOC4)C[C@H]3C)c(-c3nc(C)no3)c(C)c2c1 [Compound 202],++++ (more than 1000-fold selectivity over MOR)
≥ 0.1,> 1,"CCc1cc(-c2cc[nH]n2)c2nc(N3CCNC[C@H]3C)c(-c3ccn(C)n3)c(C)c2c1 [Compound 12, (R)-6-ethyl-4-methyl-3-(1-methyl-1H-pyrazol-3-yl)-2-(2-methylpiperazin-1-yl)-8-(1H-pyrazol-3-yl)quinoline]",+ (less than 10-fold selectivity)
0.001 to 0.01,> 1,CCc1cc(F)c2nc(N3CCN(C(=O)[C@H](C(C)C)N4CCCC4)C[C@H]3C)c(-c3nc(C)no3)c(C)c2c1 [Compound 152],+++ (between 100- to 1000-fold selective)
≥ 0.1,> 1,CCc1cc(F)c2nc(N3CCN(CC4CCOCC4)C4CC43)c(-c3nc(C)no3)c(C)c2c1 (centres unmarked) [Compound 60],–
0.01 to 0.1,> 1,CCc1cc(F)c2nc(N3CCC(N[C@H]4CCOC4)CC3)c(-c3cc(C(F)(F)F)n(C)n3)c(C)c2c1 [Compound 84],+++ (between 100- to 1000-fold selective)
0.001 to 0.01,0.1 to 1,CCc1cc(F)c2nc(N3CCN(C(=O)CCN4CCCC4)C[C@H]3C)c(-c3nc(C)no3)c(C)c2c1 [Compound 190],++ (between 10- and 100-fold selectivity)
0.001 to 0.01,> 1,"CCc1cc(F)c2nc(N3CCN(CC4CCOCC4)C[C@H]3C)c(-c3ccn(C)n3)c(C)c2c1 [Compound 2, (R)-6-ethyl-8-fluoro-4-methyl-3-(1-methyl-1H-pyrazol-3-yl)-2-(2-methyl-4-((tetrahydro-2H-pyran-4-yl)methyl)piperazin-1-yl)quinoline]",+++ (between 100- to 1000-fold selective)
0.01 to 0.1,> 1,"CCc1cc(F)c2nc(N3CCN(CC4CC(F)(F)C4)C[C@H]3C)c(-c3nc(C)no3)c(C)c2c1 [Compound 59, (R)-5-(2-(4-((3,3-difluorocyclobutyl)methyl)-2-methylpiperazin-1-yl)-6-ethyl-8-fluoro-4-methylquinolin-3-yl)-3-methyl-1,2,4-oxadiazole]",+++ (between 100- to 1000-fold selective)
0.001 to 0.01,> 1,CCc1cc(F)c2nc(N3CCN(CC4(O)CCOCC4)C[C@H]3C)c(-c3nc(C)no3)c(C)c2c1 [Compound 206],++++ (more than 1000-fold selectivity over MOR)
≥ 0.1,> 1,CCc1cc(F)c2nc(N3CCNC4CC43)c(-c3nc(C)no3)c(C)c2c1 (centres unmarked) [Compound 64],++ (between 10- and 100-fold selectivity)
